Measurements reported in patent publication US10597388B2, “Pyridazinone herbicides” (FMC CORPORATION, priority 2014, dated 2020).

Experiments:
Type in all cases: in vivo
[1] = tested on: ryegrass, Italian (Italian ryegrass, Lolium multiflorum); assay: Test A greenhouse herbicide test, pre- and postemergence
How it was run: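 Seeds sown in loam–sand blend got a preemergence directed soil spray of compound in non-phytotoxic solvent with surfactant. Postemergence treatment was given at 2–10 cm, one- to two-leaf stage. After ~10 d in greenhouse, injury was rated visually vs untreated controls, 0 (no effect) to 100 (complete control).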

rice (Oryza sativa) = assay: Test B flooded paddy test; conditions: 250 g ai/ha, Flood; visual rating on scale of 0 to 100 where 0 is no effect and 100 is complete control; 13 to 15 d after treatment
How it was run: (§1)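 Plants at the 2-leaf stage were flooded to 3 cm above soil, and test compounds were applied directly into the paddy water, which was held at that depth throughout. After 13 to 15 d in a greenhouse, injury was rated visually against untreated controls on a 0–100 scale (0 no effect, 100 complete control).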

[2] = tested on: barnyardgrass (Echinochloa crus-galli); assay: Test B flooded paddy test; conditions: 250 g ai/ha, Flood; visual rating on scale of 0 to 100 where 0 is no effect and 100 is complete control; 13 to 15 d after treatment
How it was run: as §1

[3] = tested on: sedge, umbrella (small-flower umbrella sedge, Cyperus difformis); assay: Test B flooded paddy test; conditions: 250 g ai/ha, Flood; visual rating on scale of 0 to 100 where 0 is no effect and 100 is complete control; 13 to 15 d after treatment
How it was run: as §1

[4] = tested on: ducksalad (Heteranthera limosa); assay: Test B flooded paddy test; conditions: 250 g ai/ha, Flood; visual rating on scale of 0 to 100 where 0 is no effect and 100 is complete control; 13 to 15 d after treatment
How it was run: as §1

[5] = tested on: galium (catchweed bedstraw, Galium aparine); assay: Test C greenhouse herbicide test, pre- and postemergence
How it was run: (§2)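 Two application timings: at sowing into a soil/sand blend, and on 2–18 cm seedlings in peat-vermiculite potting mix. A non-phytotoxic, surfactant-containing solvent carried the compounds. Plants were compared with controls and rated visually on 0–100 after 13–15 d.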

[6] = tested on: oilseed rape (Brassica napus); assay: as above
How it was run: as §2

[7] = tested on: foxtail, giant (giant foxtail, Setaria faberii); assay: as above
How it was run: as §2

[8] = tested on: blackgrass (Alopecurus myosuroides); assay: Test A greenhouse herbicide test, postemergence
How it was run: (§3)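 Plants grown in loam soil/sand blend pots were treated postemergence at 2 to 10 cm height, one- to two-leaf stage, with formulated test chemicals. After approximately 10 d in a greenhouse, injury was rated visually against untreated controls on a 0 to 100 scale (0 no effect, 100 complete control).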

[9] = tested on: galium (catchweed bedstraw, Galium aparine); assay: Test A greenhouse herbicide test, postemergence
How it was run: as §3

[10] = Postemergence, 125 g ai/ha, 0 to 100 scale where 0 is no effect and 100 is complete control
[11] = Preemergence, 125 g ai/ha, 0 to 100 scale where 0 is no effect and 100 is complete control
[12] = Postemergence, 31 g ai/ha, scale 0 to 100 (0 no effect, 100 complete control)
[13] = Postemergence, 125 g ai/ha, scale 0 to 100, 0 is no effect, 100 is complete control
[14] = Postemergence, 250 g ai/ha, scale 0 to 100, 0 no effect, 100 complete control, 13 to 15 d
[15] = Preemergence, 31 g ai/ha, scale 0 to 100, 0 is no effect, 100 is complete control
[16] = Preemergence, 62 g ai/ha, scale 0 to 100, 0 is no effect, 100 is complete control
[17] = Preemergence, 125 g ai/ha, scale 0 to 100, 0 is no effect, 100 is complete control
[18] = Preemergence, 250 g ai/ha, scale 0 to 100, 0 no effect, 100 complete control
[19] = 125 g ai/ha, 0 to 100 scale where 0 is no effect and 100 is complete control
[20] = 500 g ai/ha, visual rating after approx. 10 d, 0 to 100 scale (0 no effect, 100 complete control)
[21] = Postemergence, 31 g ai/ha, 0 to 100 scale (0 no effect, 100 complete control)
[22] = postemergence, 62 g ai/ha, scale 0 to 100, 0 no effect, 100 complete control
[23] = 125 g ai/ha, visual rating after approx. 10 d, 0 to 100 scale (0 no effect, 100 complete control)
[24] = 500 g ai/ha, 0 to 100 scale, 0 is no effect, 100 is complete control

Structure (SMILES)	Plant response rating, Ryegrass, Italian [1, 10]	Ryegrass, Italian plant response rating [1, 11]	Plant response rating, Rice (rice (Oryza sativa))	Plant response rating, Barnyardgrass [2]	Plant response rating, Sedge, Umbrella [3]	Plant response rating, Ducksalad [4]	Plant response rating, Galium [5, 13]	Plant response rating, Galium [5, 14]	Plant response rating, Galium [5, 15]	Plant response rating, Galium [5, 16]	Plant response rating, Galium [5, 17]	Galium plant response rating [5, 18]	Plant response rating, Oilseed Rape [6, 13]	Plant response rating, Oilseed Rape [6, 14]	Plant response rating, Oilseed Rape [6, 15]	Plant response rating, Oilseed Rape [6, 16]	Plant response rating, Oilseed Rape [6, 17]	Oilseed Rape plant response rating [6, 18]	Plant response rating, Foxtail, Giant [7, 13]	Plant response rating, Foxtail, Giant [7, 14]	also measured
Cc1nn(C)c(=O)c(-c2c(C)sc3ccc(C(F)(F)F)cc23)c1O [Compound 121]	90	80	0	0	0	0	95	95	90	90	98	100	85	55	0	85	30	85	70	85	Plant response rating, Ryegrass, Italian ([1]; Postemergence, 500 g ai/ha, visual rating after approx. 10 d, 0 to 100 scale (0 no effect, 100 complete control)): 100; Plant response rating, Ryegrass, Italian ([1]; Preemergence, 500 g ai/ha, 0 to 100 scale where 0 is no effect and 100 is complete control): 90; Plant response rating, Galium [5, 12]: 90; Plant response rating, Oilseed Rape [6, 12]: 70; Plant response rating, Foxtail, Giant [7, 12]: 20; Plant response rating, Foxtail, Giant [7, 15]: 20; Plant response rating, Foxtail, Giant [7, 16]: 55; Plant response rating, Foxtail, Giant [7, 17]: 90; Foxtail, Giant plant response rating [7, 18]: 95; Plant response rating, Blackgrass [8, 19]: 20; Plant response rating, Blackgrass [8, 20]: 50; Plant response rating, Galium [9, 19]: 70; Plant response rating, Galium [9, 20]: 90
Cc1cc2ccccc2c(-c2c(O)c(C)nn(C)c2=O)c1C [Compound 34]	100	100	0	0	0	0	95	95	95	95	90	100	50	20	10	25	90	90	25	35	Ryegrass, Italian plant response rating ([1]; Postemergence, 500 g ai/ha, 0 to 100 scale, 0 is no effect, 100 is complete control): 100; Plant response rating, Ryegrass, Italian ([1]; Preemergence, 500 g ai/ha, 0 to 100 scale, 0 no effect, 100 complete control): 100; Galium plant response rating [5, 21]: 90; Galium plant response rating [5, 22]: 95; Oilseed Rape plant response rating [6, 21]: 30; Oilseed Rape plant response rating [6, 22]: 30; Foxtail, Giant plant response rating [7, 21]: 10; Plant response rating, Foxtail, Giant [7, 15]: 0; Plant response rating, Foxtail, Giant [7, 16]: 65; Plant response rating, Foxtail, Giant [7, 17]: 75; Foxtail, Giant plant response rating [7, 18]: 70; Foxtail, Giant plant response rating [7, 22]: 20; Plant response rating, Blackgrass [8, 23]: 80; Blackgrass plant response rating [8, 24]: 90; Plant response rating, Galium [9, 23]: 90; Galium plant response rating [9, 24]: 100
